According to paper PMC7845634 (mBio, 2021):
Read-outs that look alike come from different tables or passages of the source.

Experiments:
Assay type in all cases: cell-based
[1] = tested on: SARS-CoV-2 replicon; test: microbe, parasite or virus in culture; settings: for IC50: Severe acute respiratory syndrome coronavirus 2, HEK-293T, read-out: IC50 upon replicon RNA synthesis (luciferase activity); for Result of compound library screening on replicon: Approved Drug Screening Library, final concentration 20 μM, 24 h treatment
[2] = tested on: GFP signal of ps2V plasmid
[3] = tested on: authentic SARS-CoV-2; test: Authentic SARS-CoV-2 infection assay, viral RNA copies by RT-qPCR; settings: Severe acute respiratory syndrome coronavirus 2, HEK-293T, 24 h, read-out: IC50 on authentic viruses (viral RNA copies)
[4] = tested on: IRES-CMV-luciferase; test: IRES-CMV-luciferase plasmid counter-assay in 293T cells
[5] = 293T cells, drug added 24 to 30 h after transfection, 24 h treatment
[6] = Homo sapiens, HEK-293T, read-out: IC50 on IRES-CMV-luciferase activity, 293T cells, drug added 24 to 30 h after transfection, 24 h treatment

| SMILES | IC50 [1] [µM] | Effect on GFP signal [2] | IC50 [3] [µM] | IC50 on IRES-CMV-luciferase activity [4, 5] | IC50 ([4]; 293T cells, drug added 24 to 30 h after transfection, 24 h treatment, read-out: IC50 on IRES-CMV-luciferase activity) [µM] | IC50 [4, 6] [µM] | Result of compound library screening on replicon [1] |
| --- | --- | --- | --- | --- | --- | --- | --- |
| Cc1cccc(C)c1OCC(=O)N[C@@H](Cc1ccccc1)[C@@H](O)C[C@H](Cc1ccccc1)NC(=O)[C@H](C(C)C)N1CCCNC1=O [lopinavir] | 6.79 ± 1.09 | little effect on GFP signal |  |  |  |  |  |
| CCc1cc2c(cc1N1CCC(N3CCOCC3)CC1)C(C)(C)c1[nH]c3cc(C#N)ccc3c1C2=O [alectinib] | 0.564 ± 0.0175 |  | 0.14 ± 0.0913 | no statistical significance |  |  |  |
| O=C1c2c(O)ccc(O)c2C(=O)c2c(NCCNCCO)ccc(NCCNCCO)c21 [mitoxantrone] | 0.338 ± 0.235 |  | 0.133 ± 0.0901 |  | 26.8 ± 1.2 | 27.8 |  |
| C=CC(=O)Nc1cccc(Nc2nc(Nc3ccc(N4CCN(C(C)=O)CC4)cc3OC)ncc2C(F)(F)F)c1 [rociletinib] | 7.32 ± 1.21 |  | 11.2 ± 1.89 | no statistical significance |  |  |  |
| CCN(CC)C(=S)SSC(=S)N(CC)CC [disulfiram] | 9.32 ± 1.65 | little effect on GFP signal |  |  |  |  |  |
| CC[C@H]1CN2CCc3cc(OC)c(OC)cc3[C@@H]2C[C@@H]1C[C@H]1NCCc2cc(OC)c(OC)cc21 [emetine] | 0.273 ± 0.0093 | little effect on GFP signal | 0.155 ± 0.068 |  |  |  | hit |
| Cc1ccc(NC(=O)c2ccc(CN3CCN(C)CC3)cc2)cc1Nc1nc(-c2cccnc2)cs1 [masitinib] | 0.652 ± 0.0661 |  | 0.597 ± 0.341 |  |  | 8.64 |  |
| CCC(CC)COC(=O)[C@H](C)N[P@](=O)(OC[C@H]1O[C@@](C#N)(c2ccc3c(N)ncnn23)[C@H](O)[C@@H]1O)Oc1ccccc1 [remdesivir] | 12.4 ± 1.08 | little effect on GFP signal |  |  |  |  |  |
| C[C@@H]1O[C@@H](O[C@H]2C[C@@H](O)[C@]3(CO)[C@H]4[C@H](O)C[C@]5(C)[C@@H](C6=CC(=O)OC6)CC[C@]5(O)[C@@H]4CC[C@]3(O)C2)[C@H](O)[C@H](O)[C@H]1O [ouabain] |  |  |  |  |  |  | hit |
| CC(C)c1nc(CN(C)C(=O)N[C@H](C(=O)N[C@@H](Cc2ccccc2)C[C@H](O)[C@H](Cc2ccccc2)NC(=O)OCc2cncs2)C(C)C)cs1 [ritonavir] | 14.8 ± 1.05 | little effect on GFP signal |  |  |  |  |  |
| COc1cccc2c1C(=O)c1c(O)c3c(c(O)c1C2=O)C[C@@](O)(C(=O)CO)C[C@@H]3O[C@H]1C[C@H](N)[C@H](O)[C@H](C)O1 [Adriamycin] | 0.824 ± 0.114 |  | 0.612 ± 0.228 |  |  | 17.8 |  |
| C[C@H]1O[C@@H](O[C@H]2[C@@H](O)C[C@H](O[C@H]3[C@@H](O)C[C@H](O[C@H]4CC[C@@]5(C)[C@H](CC[C@@H]6[C@@H]5CC[C@]5(C)[C@@H](C7=CC(=O)OC7)CC[C@]65O)C4)O[C@@H]3C)O[C@@H]2C)C[C@H](O)[C@@H]1O [digitoxin] |  |  |  |  |  |  | hit |
